Experimental findings from US20220142967A1, “Methods and Compositions for the Treatment of Multiple Sclerosis” (SYMBIONYX PHARMACEUTICALS INC, priority 2018, published 2022) are described below.

Data set [1] relates to cultured human keratinocytes (KCs). The experiment in a line: Microarray genome-wide expression, IDMF vs. CTL, MS-associated genes. Format: cell-based. As to the method:
RNA sample processing and microarray hybridizations were performed using the Affymetrix Human Genome U133 Plus 2.0 array platform. DNA microarray samples evaluated included IDMF- and vehicle-treated KCs (n=2 replicates per group). Samples were normalized using the robust multichip average (RMA) algorithm. Identification of probe sets with detectable expression was performed using the MAS 5.0 method, which identifies probe sets with above-background expression based upon the Wilcoxon signed rank test. To limit redundancy in downstream analyses, a single probe set was chosen to represent each protein-coding human gene featured on the microarray platform. This representative was chosen as the probe set with highest expression for each protein-coding human gene. These probe sets were then additionally filtered to include only those with detectable expression in at least 1 of the 4 samples (P<0.05, Wilcoxon signed rank test). Overall, this yielded a total of 12330 protein-coding genes that were included in analyses, with each gene represented by a single representative probe set. Bayesian linear models and moderated t-statistics were then used to evaluate differential expression for each of the 12330 genes (IDMF vs. CTL treatment; R package: limma). To control the false discovery rate (FDR), raw p-values generated from linear model analyses were adjusted using the Benjamini-Hochberg method.
Genes associated with multiple sclerosis were identified based upon four established database sources: (1) the NHGRI-EBI genome-wide association (GWA) study catalogue, (2) the Disease Ontology (DO) database, (3) the DisGeNET database, and (4) the Medical Subject Heading (MESH) database. While there is some overlap between the various databases, the variation in identified genes from one database to the other reflects the fact that the science is still developing and has uncertainties. Nevertheless, as discussed below, efforts were undertaken to hone in on genes common to multiple databases. […]

In data set [2] the target is T1, carboxylesterase 2 (CES2) (Homo sapiens, UniProt O00748).
T1 sequence (O00748 27-559): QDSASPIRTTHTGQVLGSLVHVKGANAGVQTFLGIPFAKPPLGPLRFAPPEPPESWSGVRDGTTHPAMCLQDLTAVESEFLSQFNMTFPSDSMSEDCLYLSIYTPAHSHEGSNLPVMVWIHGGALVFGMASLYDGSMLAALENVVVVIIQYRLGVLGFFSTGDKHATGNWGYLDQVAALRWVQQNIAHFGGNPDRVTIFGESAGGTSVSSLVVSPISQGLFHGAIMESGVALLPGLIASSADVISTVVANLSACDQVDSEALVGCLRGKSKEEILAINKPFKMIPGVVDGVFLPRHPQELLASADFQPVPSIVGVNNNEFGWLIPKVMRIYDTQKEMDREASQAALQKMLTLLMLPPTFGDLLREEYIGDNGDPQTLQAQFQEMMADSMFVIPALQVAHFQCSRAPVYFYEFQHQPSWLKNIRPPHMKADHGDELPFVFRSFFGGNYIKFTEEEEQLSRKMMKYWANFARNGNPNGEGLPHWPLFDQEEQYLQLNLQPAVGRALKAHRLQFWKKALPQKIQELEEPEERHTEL
Kind of data set: Carboxylesterase hydrolysis IDMF v DRF. Conditions: 20 μl of 1 mg/ml CES2, 37° C., pH 7.4. The data set is classed as in vitro ADME. As for the experimental part:
20 μl of 1 mg/ml carboxylesterase 2 (CES2) was added to each solution and the solutions incubated at 37° C. for the time periods set forth in Table 5. […] Although tolerable for normal patients, HES is undesirable and detrimental for those individuals have kidney and/or liver issues

For data set [3], the system named is human fetal astrocytes derived from cerebral cortex. The experiment in a line: Comparative RT-PCR evaluation of selected genes in astrocytes. The data set is classed as cell-based. As to the method: Experiments were performed using human fetal astrocytes derived from cerebral cortex (cat. no. 882A-05f; Cell Applications, Sant Diego, Calif.). Cells were grown to subconfluence in human astrocyte growth medium (cat. no. 820-500, Cell Applications). […] Test materials were added to subconfluent cultures at a concentration of 2.5 μM and cells were incubated for 24 hours.
RNA was extracted following the incubation period using the RNAeasy Mini Plus kit (Qiagen, Hilden, Germany) and robotic Qiacube Connect station (Qiagen). Samples were shipped on dry ice to the Thermo Fisher Microarray Research Services Laboratory (Santa Clara, Calif.) for transcriptome analysis. RNA quality analysis was performed upon sample receipt using the NanoDrop Lite (Thermo Fisher Scientific, Waltham, Mass.). All samples had 260/280 nm absorbance ratios higher than 1.90, consistent with high-purity RNA.
The expression of selected genes was further evaluated using RT-PCR. cDNA was prepared using the AzuraQuant cDNA kit (Azura Genomics, Raynham, Mass.) and PCR reactions were performed using the BioRad iCycler iQ Detection System with Fast Green qPCR Master Mix—Fluor (Azura Genomics). PCR primers were purchased from Realtimeprimers (Elkins Park, Pa.). The ΔΔCt method [Livak K. J. and Schmittgen T. D. Analysis of relative gene expression data using real-time quantitative PCR and the 2(−Delta Delta C(T)) Method. Methods (San Diego, Calif.) 25(4):402-408, 2001]. was used to estimate fold changes with cycle threshold values normalized based upon the expression of glyceraldehyde-3-phosphate dehydrogenase (GAPDH).

The mark [4] stands for this setting: genes common to at least two of four databases.

Counter-ions that a name gives are not always drawn.

Consider `COC(=O)/C=C/C(=O)O[C@H]1CO[C@H]2[C@@H]1OC[C@H]2OC(=O)/C=C/C(=O)OC` [IDMF, isosorbide di-(methyl fumarate)], for which the “average fold-change (IDMF/CTL) of MS-associated genes vs. randomly sampled gene sets” value in data set [1] (76 MS-associated genes from the Disease Ontology (DO) database, P<0.001) is on record as “significantly lower”. In addition, in data set [1] (setting [4]), the “MS-associated genes most strongly decreased” value is “ICAM1, PLAT, and MMP9”; the “MS-associated genes most strongly increased” value was “POPDC3, MMP3, and DDAH1”. For the same molecule, the remaining parent compound in data set [2] (0 minutes) is on record as 1.086 mM. The remaining parent compound in data set [2] (15 minutes) was 0.113 mM. Also, the OSGIN1 expression entry in data set [3] (FIG. 11(B)) is “enhancing expression”. In data set [3] (FIGS. 11(C) through 11(H)), the “expression of key MS-associated genes (IL-6, ICAM1, MALT1, TNFAIP3, IRF1, CXCL8)” value is reported as “marked suppression”.
